Reference: patent US20020091082A1, “Methods of modulating symptoms of hypertension” (priority 2000, published 2002)
“Also recorded” adds a separate entry of the source. Read-outs that look alike come from different tables or passages of the source.

Columns and labels:
[1] = test system: KDR mRNA; assay: Angiotensin II-induced KDR mRNA expression; format: cell-based
Source text: (§1) Cyclic stretch induces KDR mRNA at least 2.2 fold. […] In contrast, angiotensin II which also induces KDR mRNA is blocked from doing so by candesartan cilexetil, an AT1 receptor antagonist. Thus, unlike Angiotensin II induced KDR expression, stretch induced KDR expression is not mediated through the AT1 receptor pathway.

[2] = test system: bovine retinal endothelial cells (BRECs); assay: 3H-thymidine incorporation (mitogenesis) under cyclic stretch; format: cell-based
Protocol: Cells can respond to VEGF by proliferation. A measure of proliferation is the rate of cell progression through mitosis. Cells transiting S phase will incorporate ^3H-thymidine.
To determine if the effects of cyclic stretching on mitogenesis are mediated by VEGF signaling, cells were stretched while treated with a VEGF neutralizing antibody.
(§2) Cells were seeded on 6-well flexible-bottom plates coated with bovine fibronectin and subjected to uniform radial and circumferential strain using a computercontrolled, vacuum stretch apparatus (Flexcer Cell Strain Unit; Flexcel Corp.) with cardiac profile at a frequency of 60 cpm.
Confluent cells were placed in 1% calf serum for 24 hours and then subjected to 9%/60 cpm cyclic stretch for 24 hrs. During the last 12 hrs, VEGF (25 ng/ml final). VEGF neutralizing antibody (10 μg/ml was added 30 minutes prior to stretch onset. ^3H-thymidine (0.5 μCi/ml)was added during the last 6 hours.

[3] = test system: VEGF mRNA; assay: Stretch-induced VEGF mRNA expression in bovine retinal pericytes (Northern blot); format: cell-based; conditions: BRPC; for effect on stretch-induced VEGF mRNA expression: 9%/60 cpm cyclic stretch, PD98059 20 uM, GF109203X 5 uM; for effect on stretch-induced VEGF mRNA expression / inhibition of stretch-induced VEGF mRNA expression: wortmannin 100 nM, LY294002 50 uM; for inhibition of stretch-induced VEGF mRNA expression: 9%/60 cpm cyclic stretch 3 hours, genistein 20 uM, adenovirus 1×10^8 pfu/ml; for effect on basal VEGF mRNA expression: unstretched
Protocol: To determine the mechanism by which stretch increased VEGF mRNA expression, inhibitors of MEK1 (PD98059, 20 uM), classical/novel PKC isoforms (GF109203X, 5 uM), tyrosine phosphorylation (genistein, 20 uM) and PI3 kinase (wortmannin, 100 nM and LY294002, 50 uM) were evaluated. In all experiments 9%/60 cpm cyclic stretch for 3 hours induced VEGF mRNA expression. Inhibition of ERK1/2 utilizing PD98059 had little effect on either basal or stretch-induce expression of VEGF. […] LY294002 and wortmannin inhibited stretched induced VEGF mRNA expression by 85±20% (p=0.039) and 96±25% (p=0.035), respectively.
Cell culture: Primary cultures of bovine retinal pericytes (BRPC) were isolated by homogenization and a series of filtration steps. BRPC were cultured in DMEM containing 5.5 mM glucose and 20% FBS. The cells were maintained in 5% CO2 at 37 °C and media were changed every three days. Cells were characterized for their homogeneity by immunoreactivity with monoclonal antibody 3G5. Cells were plated at a density of 2×10^4 cells/cm2 and passaged when confluent. The media were changed every three days and only cells from passages 2-5 were used for experiments.
(§3) Mechanical Stretch: For pericyte experiments, cells were plated on 6-well flexiblebottom culture plates coated with collagen (Flexcell Corp.,Mckeepsport, Pa.). After 2 days, media were changed to DMEM containing 1% calf serum and the cells incubated overnight. Cells were then subjected to uniform radial and circumferential strain in 5% CO2 at 37° C. using a computer-controlled, vacuum stretch apparatus (Flexcer Cell Strain Unit; Flexcel Corp.). A physiologic stretch frequency of 60 cpm and 3-20% prolongation of elastomer bottomed plates were used as previously described.
RNA Extraction: RNA was extracted using the guanidinium thiocynate method. RNA purity was determined by the ratio of optical density (OD) measured at 260 & 280 nm and RNA quantity was estimated using OD measured at 260 nm.
Northern Blot Analysis: Northern blot analysis was performed on 15 μg total RNA per lane after 1% agarose-2M formaldehyde gel electrophoresis and subsequent capillary transfer to Biodyne nylon membranes (Pall BioSupport, East Hills, N.Y.). Membranes underwent ultraviolet crosslinking using a UV Stratalinker 2400 (STRATAGENE, La Jolla, Calif.). Radioactive probes were generated using Amersham Megaprime labeling kits (Buckinghamshire, England) and 32PdCTP (NEN Life Science Products Inc., Boston, Mass.). Blots were pre-hybridized, hybridized and washed 4 times in 0.5×SSC, 5% SDS at 65 °C for 1 hour in a rotating hybridization oven (Robbins Scientific Corporation, Sunnyvale, Calif.). All signals were analyzed using a computing PhosphorImager with ImageQuant software analysis (Molecular Dynamics, Sunnyvale, Calif.). The signal for each sample was normalized by re-probing the same blot using 36B4 cDNA control probe.

[4] = test system: ERK1/2; assay: Stretch-induced ERK1/2 phosphorylation in retinal pericytes; format: cell-based, bovine
Protocol: To determine what pathways were activated in retinal pericytes exposed to cardiac profile cyclic stretch, ERK phosphorylation, PI3 kinase activity and Akt phosphorylation were evaluated. Stretch induced a rapid increase in ERK 1/ 2 phosphorylation which was initially evident after 2 minutes, maximal at 5 min (ERK1=20-fold; ERK2=8.9-fold increase) and still maintained above baseline even after 60 min (ERK1=6.3-fold; ERK2=4.5-fold).
Further confirmation that stretch-induced ERK1/2 activation was not involved in mediating stretch-induced VEGF expression was obtained by assaying ERK1/2 phosphorylation after exposure to the inhibitors described herein. The inhibitor response for stretch-induced ERK1/2 phosphorylation was opposite that observed for stretch-induced VEGF expression. Stretch-induced ERK1/2 phosphorylation was reduced by inhibition of MEK1 (85+10.8%, 88+7.1%, p<0.05) or classical/novel PKC (83+23%, 84+7.1% p<0.05) but relatively unaffected by inhibition of PI3 kinase or tyrosine phosphorylation. Adenovirus infection with dominant negative ERK, wild type active ERK63 or b-galactosidase control had no effect on stretch-induced VEGF expression.
Mechanical Stretch: For pericyte experiments, cells were plated on 6-well flexiblebottom culture plates coated with collagen (Flexcell Corp.,Mckeepsport, Pa.). […]

[5] = test system: retinal KDR mRNA; assay: Retinal KDR mRNA in spontaneously hypertensive rats (multiplex RT-PCR); format: in vivo, rat; conditions: SHR rats, captopril 100 mg/kg/day or candesartan cilexetil 10 mg/kg/day in drinking water for one week
Protocol: To determine the effect of hypertension on KDR levels in vivo, KDR mRNA was quantified in hypertensive rats (SHR) as well as weight-matched controls (WKY). […] Captopril is an angiotensin converting enzyme (ACE) inhibitor. Candesartan Cilexetil is an angiotensin II antagonist.
(§4) 12 week-old male spontaneously hypertensive rats (SHR) and weight-matched Wistar-Kyoto (WKY) control animals were used. Systolic and diastolic blood pressures were measured from each animal by tail cuff. Animals were treated with or without 100 mg/kg/day captopril or 10 mg/kg/day candesartan cilexetil for one week. Drugs were administered in drinking water. Blood measurements were repeated after therapy and the retinas individually isolated.
(§5) RNA was isolated from individual retinas and RNA reverse transcribed at 42° C. using random hexamer primers. PCR amplification was carried out using a 55° C. annealing temperature. The samples were separated on a 6% nondenaturing polyacrylamide gel. The gel was dried and analyzed by PhosphorImager. Signal intensity was normalized using rat ribosomal phosphoprotein P0 (RRRPP0) as an internal standard.

[6] = Blood pressure in spontaneously hypertensive rats (tail cuff); format: in vivo, rat; conditions: SHR rats, treatment for one week in drinking water
Protocol: as §4

[7] = test system: retinal VEGF mRNA; assay: Retinal VEGF mRNA in spontaneously hypertensive rats (multiplex RT-PCR); format: in vivo, rat; conditions: SHR rats; captopril 100 mg/kg/day or candesartan cilexetil 10 mg/kg/day in drinking water for one week
Protocol: as §4, §5

[8] = test system: KDR mRNA; assay: Cyclic stretch-induced KDR mRNA expression; format: cell-based, bovine
Protocol: as §1, §2

[9] = test system: Akt; assay: Stretch-induced Akt phosphorylation in retinal pericytes; format: cell-based, bovine; conditions: cyclic stretch
Protocol: The mechanism of stretch-induced Akt phosphorylation was evaluated using two PI3 kinase inhibitors (LY294002 and wortmannin), the MEK1 inhibitor PD98059 and the tyrosine kinase inhibitor genistein.
as §3
ERK1/2 and Akt phosphorylation: Cells were washed with cold PBS and lysed in 1X Laemmli buffer containing protease inhibitors as described above. Cell lysates were heated to 95 °C for 2 min and equal volume of lysates were subjected to SDS-PAGE under reducing conditions. The blots were incubated with anti-phosphospecific ERK1(p44)/ERK2(p42) or anti-phosphospecific Akt antibody (New England Biolabs, Beverly, Ma.). Lane loading differences were normalized by reblotting with non-phosphorylation-specific (total) anti ERK1 antibody (Santa Cruz Biological) or anti-total Akt antibody(New England Biolabs).

angiotensin II (DRVYIHPF; Angiotensin-2; UniProt P01019 25-32, looked up) [peptide that induces KDR mRNA through the AT1 receptor]
KDR mRNA induction [1]: induces

VEGF
increase of VEGF-stimulated thymidine uptake by cyclic stretch ([2]; BREC, cyclic stretch plus VEGF): 2.6+/−0.2 fold | increase in 3H-thymidine uptake ([2]; cyclic stretching in combination with exogenous VEGF (25 ng/ml)): 257±21% | effect on 3H-thymidine uptake ([2]; exogenous VEGF alone, no stretch): no significant effect

CN(C)CCCn1cc(C2=C(c3c[nH]c4ccccc34)C(=O)NC2=O)c2ccccc21 [GF109203X]
effect on stretch-induced VEGF mRNA expression [3]: did not alter | effect on stretch-induced ERK1/2 phosphorylation [4]: inhibition

CCOc1nc2cccc(C(=O)OC(C)OC(=O)OC3CCCCC3)c2n1Cc1ccc(-c2ccccc2-c2nn[nH]n2)cc1 (stereo not drawn) [candesartan cilexetil]
effect on angiotensin II-induced KDR mRNA ([1]; angiotensin II stimulation): blocked | effect on hypertension-induced elevation of retinal KDR mRNA [5]: blocked | effect on hypertension-induced elevation of retinal KDR mRNA ([5]; listed as candesartan): returned to baseline levels | effect on blood pressure [6]: normalization | effect on hypertension-induced elevation of retinal VEGF mRNA [7]: blocked | effect on cyclic stretch-induced KDR mRNA expression [8]: not significantly affected | effect on cyclic stretch-induced KDR mRNA expression ([8]; listed as candesartan): not inhibited

O=c1cc(N2CCOCC2)oc2c(-c3ccccc3)cccc12 [LY294002]
inhibition of stretch-induced VEGF mRNA expression [3]: 85±20% | inhibition of stretch-induced Akt phosphorylation [9]: 119+14%

C[C@H](CS)C(=O)N1CCC[C@H]1C(=O)O [captopril]
effect on hypertension-induced elevation of retinal KDR mRNA [5]: blocked; also recorded: returned to baseline levels | effect on blood pressure [6]: normalization | effect on hypertension-induced elevation of retinal VEGF mRNA [7]: blocked

COC[C@H]1OC(=O)c2coc3c2[C@@]1(C)C1=C(C3=O)[C@@H]2CCC(=O)[C@@]2(C)C[C@H]1OC(C)=O [wortmannin]
inhibition of stretch-induced VEGF mRNA expression [3]: 96±25% | inhibition of stretch-induced Akt phosphorylation [9]: 119+18%

O=c1c(-c2ccc(O)cc2)coc2cc(O)cc(O)c12 [genistein]
inhibition of stretch-induced VEGF mRNA expression [3]: 87±12% | effect on basal VEGF mRNA expression [3]: without altering | effect on stretch-induced ERK1/2 phosphorylation [4]: lack of response | inhibition of stretch-induced Akt phosphorylation [9]: 84+14%

COc1cccc(-c2cc(=O)c3ccccc3o2)c1N [PD98059]
effect on stretch-induced VEGF mRNA expression [3]: little effect; also recorded: not suppressed | effect on basal VEGF mRNA expression [3]: little effect | effect on stretch-induced Akt phosphorylation [9]: little effect
